Measurements from ChEMBL document CHEMBL4507311, “Data for DCP probe A-1155463” (2021).

Assays:
[1] = target: Estrogen receptor (Homo sapiens) (UniProt P03372); assay: Estrogen ER alpha (h) Eurofins-Cerep binding assay; parameters: ligand concentration 0.5 nM; settings: filed as agonist, Compound concentration 10.0 uM
[2] = target: Histamine H2 receptor (Homo sapiens) (UniProt P25021); assay: H2 (h) Eurofins-Cerep binding assay; parameters: ligand concentration 0.075 nM; settings: filed as antagonist, Compound concentration 10.0 uM
[3] = target: Induced myeloid leukemia cell differentiation protein Mcl-1 (Homo sapiens, UniProt Q07820); assay: Time-resolved fluorescence energy transfer (TR-FRET) with MCL1
[4] = target: Cannabinoid receptor 2 (Homo sapiens) (UniProt P34972); assay: CB2 (h) Eurofins-Cerep binding assay; parameters: ligand concentration 0.8 nM; settings: filed as agonist, Compound concentration 10.0 uM
[5] = target: Beta-2 adrenergic receptor (Homo sapiens) (UniProt P07550); assay: Beta2 (h) Eurofins-Cerep binding assay; parameters: ligand concentration 0.3 nM; settings: filed as antagonist, Compound concentration 10.0 uM
[6] = target: B2 bradykinin receptor (Homo sapiens) (UniProt P30411); assay: B2 (h) Eurofins-Cerep binding assay; parameters: ligand concentration 0.3 nM; settings: filed as agonist, Compound concentration 10.0 uM
[7] = target: T1, Alpha-2B adrenergic receptor (Homo sapiens) (UniProt P18089); assay: Alpha2B (h) Eurofins-Cerep binding assay; parameters: ligand concentration 2.5 nM; settings: filed as antagonist, Compound concentration 10.0 uM
T1 sequence (whole entry): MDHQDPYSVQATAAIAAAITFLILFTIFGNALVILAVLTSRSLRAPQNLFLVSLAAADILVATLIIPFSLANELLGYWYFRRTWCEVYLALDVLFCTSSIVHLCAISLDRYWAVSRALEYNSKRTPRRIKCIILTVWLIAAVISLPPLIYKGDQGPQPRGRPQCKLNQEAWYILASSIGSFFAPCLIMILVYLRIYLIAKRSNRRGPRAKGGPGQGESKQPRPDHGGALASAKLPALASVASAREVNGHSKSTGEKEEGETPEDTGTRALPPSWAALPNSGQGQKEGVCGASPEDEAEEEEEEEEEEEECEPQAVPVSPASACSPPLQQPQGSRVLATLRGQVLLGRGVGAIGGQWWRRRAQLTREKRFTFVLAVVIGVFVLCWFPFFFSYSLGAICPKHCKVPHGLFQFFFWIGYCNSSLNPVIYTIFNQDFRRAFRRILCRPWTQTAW

[8] = target: Substance-P receptor (Homo sapiens) (UniProt P25103); assay: NK1 (h) Eurofins-Cerep binding assay; parameters: ligand concentration 0.05 nM; settings: filed as agonist, Compound concentration 10.0 uM
[9] = target: Sodium/potassium-transporting ATPase (Sus scrofa) (UniProt P05027+P05024+D2WKD8+D2WKD7+F1ST41); assay: ATPase (Na+/K+) Eurofins-Cerep enzyme and uptake assay; format: protein-complex assay; settings: Compound concentration 10.0 uM
[10] = target: Glucocorticoid receptor (Homo sapiens) (UniProt P04150); assay: GR (h) Eurofins-Cerep binding assay; parameters: ligand concentration 1.5 nM; settings: filed as agonist, Compound concentration 10.0 uM
[11] = target: 5-hydroxytryptamine receptor 1B (Homo sapiens) (UniProt P28222); assay: 5-HT1B(h) Eurofins-Cerep binding assay; parameters: ligand concentration 1 nM; settings: filed as antagonist, Compound concentration 10.0 uM
[12] = target: Tumor necrosis factor (Homo sapiens) (UniProt P01375); assay: TNF-alpha (h) Eurofins-Cerep binding assay; parameters: ligand concentration 0.1 nM; settings: filed as agonist, Compound concentration 10.0 uM
[13] = target: Type-1 angiotensin II receptor (Homo sapiens) (UniProt P30556); assay: AT1 (h) Eurofins-Cerep binding assay; parameters: ligand concentration 0.05 nM; settings: filed as antagonist, Compound concentration 10.0 uM
[14] = target: T2, 5-hydroxytryptamine receptor 2C (Homo sapiens) (UniProt P28335); assay: 5-HT2C (h) Eurofins-Cerep binding assay; parameters: ligand concentration 1 nM; settings: filed as antagonist, Compound concentration 10.0 uM
T2 sequence (whole entry): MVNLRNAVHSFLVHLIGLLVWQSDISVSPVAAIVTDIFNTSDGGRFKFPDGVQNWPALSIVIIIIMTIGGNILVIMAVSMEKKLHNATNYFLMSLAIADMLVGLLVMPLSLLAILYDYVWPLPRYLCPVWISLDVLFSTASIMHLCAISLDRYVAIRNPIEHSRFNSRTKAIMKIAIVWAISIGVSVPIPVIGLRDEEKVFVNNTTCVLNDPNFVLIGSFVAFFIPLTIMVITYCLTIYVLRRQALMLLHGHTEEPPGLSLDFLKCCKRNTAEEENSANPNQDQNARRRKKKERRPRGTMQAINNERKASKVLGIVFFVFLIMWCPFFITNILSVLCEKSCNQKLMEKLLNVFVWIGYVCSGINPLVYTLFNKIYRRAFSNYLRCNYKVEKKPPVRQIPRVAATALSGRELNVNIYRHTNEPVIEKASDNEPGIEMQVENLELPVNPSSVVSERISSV

[15] = target: Sodium-dependent noradrenaline transporter (Homo sapiens) (UniProt P23975); assay: norepinephrine transporter (h) Eurofins-Cerep binding assay; parameters: ligand concentration 1 nM; settings: filed as antagonist, Compound concentration 10.0 uM
[16] = target: T3, GABA-A receptor; anion channel (Rattus norvegicus) (UniProt O09028+P15431+P18506+P18508+P19969+P20236+P23574+P23576+P28471+P28473+P30191+P62813+P63079+P63138+Q91ZM7+Q9ES14); assay: BZD (central) Eurofins-Cerep binding assay; format: protein-complex assay; parameters: ligand concentration 0.4 nM; settings: filed as agonist, Compound concentration 10.0 uM
[17] = target: MAO-A (amine oxidase [flavin-containing] A) (Rattus norvegicus, UniProt P21396); assay: MAO-A Eurofins-Cerep binding assay; parameters: incubation time 60 min, incubation temperature 37°C, ligand concentration 10 nM; settings: rat cerebral cortex, probe [3H]Ro 41-1049 (10 nM), compound concentration 10 uM, read-out: % Inhibition of Control Specific Binding (Mean n=2)
[18] = target: MAO-B (amine oxidase [flavin-containing] B) (Homo sapiens, UniProt P27338); assay: MAO-B (h) recombinant enzyme Eurofins-Cerep enzyme and uptake assay; parameters: incubation time 60 min, incubation temperature 37°C, substrate/stimulus/tracer D-Luciferin derivative (4 µM); settings: probe D-Luciferin derivative (4 µM), compound concentration 10 uM, read-out: % Inhibition of Control Values (Mean n=2)
[19] = target: Endothelin-1 receptor (Homo sapiens) (UniProt P25101); assay: ETA (h) Eurofins-Cerep binding assay; parameters: ligand concentration 0.03 nM; settings: filed as agonist, Compound concentration 10.0 uM
[20] = target: Mu-type opioid receptor (Homo sapiens) (UniProt P35372); assay: mu (MOP) (h) Eurofins-Cerep binding assay; parameters: ligand concentration 0.5 nM; settings: filed as agonist, Compound concentration 10.0 uM
[21] = target: Prostaglandin G/H synthase 1 (Homo sapiens) (UniProt P23219); assay: COX1(h) Eurofins-Cerep enzyme and uptake assay; settings: Compound concentration 10.0 uM
[22] = target: T4, Muscarinic acetylcholine receptor M2 (Homo sapiens) (UniProt P08172); assay: M2 (h) Eurofins-Cerep binding assay; parameters: ligand concentration 2 nM; settings: filed as antagonist, Compound concentration 10.0 uM
T4 sequence (whole entry): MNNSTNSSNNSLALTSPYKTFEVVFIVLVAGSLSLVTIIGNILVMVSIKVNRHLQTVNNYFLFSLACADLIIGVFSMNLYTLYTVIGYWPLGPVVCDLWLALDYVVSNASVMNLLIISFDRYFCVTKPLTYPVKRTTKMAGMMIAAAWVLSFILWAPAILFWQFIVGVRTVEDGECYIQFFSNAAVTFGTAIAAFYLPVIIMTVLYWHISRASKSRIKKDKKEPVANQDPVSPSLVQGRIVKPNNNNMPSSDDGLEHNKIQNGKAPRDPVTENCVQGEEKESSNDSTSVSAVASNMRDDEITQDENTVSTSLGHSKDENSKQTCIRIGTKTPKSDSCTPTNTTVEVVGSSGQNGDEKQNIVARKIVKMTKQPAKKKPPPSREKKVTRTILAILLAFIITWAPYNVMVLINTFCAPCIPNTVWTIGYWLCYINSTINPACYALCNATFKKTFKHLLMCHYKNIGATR

[23] = target: T3, GABA-A receptor; anion channel (Rattus norvegicus); assay: Cl- channel (GABA-gated) Eurofins-Cerep binding assay; format: protein-complex assay; parameters: ligand concentration 3 nM; settings: filed as antagonist, Compound concentration 10.0 uM
[24] = target: Peroxisome proliferator-activated receptor gamma (Homo sapiens) (UniProt P37231); assay: PPARgamma (h) Eurofins-Cerep binding assay; parameters: ligand concentration 5 nM; settings: filed as agonist, Compound concentration 10.0 uM
[25] = target: Vasoactive intestinal polypeptide receptor 1 (Homo sapiens) (UniProt P32241); assay: VPAC1 (VIP1) (h) Eurofins-Cerep binding assay; parameters: ligand concentration 0.04 nM; settings: filed as agonist, Compound concentration 10.0 uM

Sodium-dependent noradrenaline transporter (Homo sapiens), sequence (P23975 whole entry): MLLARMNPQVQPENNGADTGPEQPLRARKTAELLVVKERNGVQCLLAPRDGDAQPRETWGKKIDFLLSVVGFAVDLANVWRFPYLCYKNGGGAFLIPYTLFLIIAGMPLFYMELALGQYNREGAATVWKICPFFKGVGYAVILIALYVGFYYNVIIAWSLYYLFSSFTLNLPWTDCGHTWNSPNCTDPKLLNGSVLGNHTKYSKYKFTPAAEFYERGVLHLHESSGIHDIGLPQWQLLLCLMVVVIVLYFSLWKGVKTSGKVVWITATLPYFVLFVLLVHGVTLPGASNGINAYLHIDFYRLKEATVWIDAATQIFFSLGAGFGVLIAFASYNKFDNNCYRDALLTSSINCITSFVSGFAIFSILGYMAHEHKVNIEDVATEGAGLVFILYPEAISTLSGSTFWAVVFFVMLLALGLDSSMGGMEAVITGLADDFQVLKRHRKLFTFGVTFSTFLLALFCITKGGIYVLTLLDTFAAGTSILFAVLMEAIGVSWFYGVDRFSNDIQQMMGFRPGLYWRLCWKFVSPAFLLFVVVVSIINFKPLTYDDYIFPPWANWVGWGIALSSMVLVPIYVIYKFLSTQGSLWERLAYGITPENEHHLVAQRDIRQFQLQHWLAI
B2 bradykinin receptor (Homo sapiens), sequence (P30411 whole entry): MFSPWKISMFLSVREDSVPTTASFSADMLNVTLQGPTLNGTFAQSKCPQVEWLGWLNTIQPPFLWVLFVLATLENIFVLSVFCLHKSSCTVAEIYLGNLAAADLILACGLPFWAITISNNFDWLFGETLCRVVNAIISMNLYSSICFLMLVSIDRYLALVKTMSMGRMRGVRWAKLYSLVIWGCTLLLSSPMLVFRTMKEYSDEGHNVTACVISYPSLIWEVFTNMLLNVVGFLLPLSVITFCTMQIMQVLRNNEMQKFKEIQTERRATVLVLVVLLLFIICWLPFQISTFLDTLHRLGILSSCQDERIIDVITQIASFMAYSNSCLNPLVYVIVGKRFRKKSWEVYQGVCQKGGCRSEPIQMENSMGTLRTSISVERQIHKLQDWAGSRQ
Substance-P receptor (Homo sapiens), sequence (P25103 whole entry): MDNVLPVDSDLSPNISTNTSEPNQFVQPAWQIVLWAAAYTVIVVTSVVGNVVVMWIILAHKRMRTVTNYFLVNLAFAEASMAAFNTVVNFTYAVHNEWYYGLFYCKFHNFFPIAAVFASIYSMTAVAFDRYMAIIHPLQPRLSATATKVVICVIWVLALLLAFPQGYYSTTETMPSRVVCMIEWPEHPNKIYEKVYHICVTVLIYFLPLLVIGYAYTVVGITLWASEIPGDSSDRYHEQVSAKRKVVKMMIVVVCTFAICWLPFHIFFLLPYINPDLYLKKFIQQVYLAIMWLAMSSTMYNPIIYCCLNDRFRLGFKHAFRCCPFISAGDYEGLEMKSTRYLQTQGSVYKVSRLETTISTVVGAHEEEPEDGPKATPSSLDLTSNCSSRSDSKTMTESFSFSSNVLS
Tumor necrosis factor (Homo sapiens), sequence (P01375 whole entry): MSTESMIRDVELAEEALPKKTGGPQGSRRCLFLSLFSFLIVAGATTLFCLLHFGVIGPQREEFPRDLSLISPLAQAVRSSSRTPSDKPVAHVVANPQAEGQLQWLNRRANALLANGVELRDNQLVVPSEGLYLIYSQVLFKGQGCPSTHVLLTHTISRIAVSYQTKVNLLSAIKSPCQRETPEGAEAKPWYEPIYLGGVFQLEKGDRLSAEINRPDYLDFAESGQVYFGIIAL
MAO-B (amine oxidase [flavin-containing] B), sequence (P27338 whole entry): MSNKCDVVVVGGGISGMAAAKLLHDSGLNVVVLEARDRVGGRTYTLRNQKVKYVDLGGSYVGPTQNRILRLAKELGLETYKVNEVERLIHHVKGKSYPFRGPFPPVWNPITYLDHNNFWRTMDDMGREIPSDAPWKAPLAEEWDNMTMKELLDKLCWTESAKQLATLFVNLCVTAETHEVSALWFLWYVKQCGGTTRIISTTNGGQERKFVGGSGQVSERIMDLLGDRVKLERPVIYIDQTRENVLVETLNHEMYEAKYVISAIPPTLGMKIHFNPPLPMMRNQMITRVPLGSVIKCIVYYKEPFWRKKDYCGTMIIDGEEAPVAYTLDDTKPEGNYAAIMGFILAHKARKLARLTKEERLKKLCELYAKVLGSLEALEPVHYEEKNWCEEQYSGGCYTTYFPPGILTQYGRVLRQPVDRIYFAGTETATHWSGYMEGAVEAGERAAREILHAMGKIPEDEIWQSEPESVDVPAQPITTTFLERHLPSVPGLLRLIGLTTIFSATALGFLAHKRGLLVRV
Histamine H2 receptor (Homo sapiens), sequence (P25021 whole entry): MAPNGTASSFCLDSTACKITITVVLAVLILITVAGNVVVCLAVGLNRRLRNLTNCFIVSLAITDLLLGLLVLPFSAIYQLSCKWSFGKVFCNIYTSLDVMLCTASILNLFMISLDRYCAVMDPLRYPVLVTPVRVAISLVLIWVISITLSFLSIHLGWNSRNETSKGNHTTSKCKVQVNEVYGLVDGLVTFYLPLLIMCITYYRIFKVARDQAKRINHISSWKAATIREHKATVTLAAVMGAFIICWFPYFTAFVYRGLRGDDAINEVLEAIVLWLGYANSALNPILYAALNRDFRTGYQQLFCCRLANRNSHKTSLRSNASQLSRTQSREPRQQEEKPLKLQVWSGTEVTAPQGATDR
5-hydroxytryptamine receptor 1B (Homo sapiens), sequence (P28222 whole entry): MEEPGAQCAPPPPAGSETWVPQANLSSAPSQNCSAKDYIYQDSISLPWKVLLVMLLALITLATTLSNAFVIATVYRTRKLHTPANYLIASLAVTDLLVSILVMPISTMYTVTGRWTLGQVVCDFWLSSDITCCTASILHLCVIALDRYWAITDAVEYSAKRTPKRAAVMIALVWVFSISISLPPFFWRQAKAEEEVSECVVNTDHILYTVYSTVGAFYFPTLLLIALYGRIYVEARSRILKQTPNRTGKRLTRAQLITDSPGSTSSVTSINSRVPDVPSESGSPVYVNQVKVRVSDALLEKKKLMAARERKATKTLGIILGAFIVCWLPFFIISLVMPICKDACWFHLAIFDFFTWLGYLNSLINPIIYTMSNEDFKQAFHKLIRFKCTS
MAO-A (amine oxidase [flavin-containing] A), sequence (P21396 whole entry): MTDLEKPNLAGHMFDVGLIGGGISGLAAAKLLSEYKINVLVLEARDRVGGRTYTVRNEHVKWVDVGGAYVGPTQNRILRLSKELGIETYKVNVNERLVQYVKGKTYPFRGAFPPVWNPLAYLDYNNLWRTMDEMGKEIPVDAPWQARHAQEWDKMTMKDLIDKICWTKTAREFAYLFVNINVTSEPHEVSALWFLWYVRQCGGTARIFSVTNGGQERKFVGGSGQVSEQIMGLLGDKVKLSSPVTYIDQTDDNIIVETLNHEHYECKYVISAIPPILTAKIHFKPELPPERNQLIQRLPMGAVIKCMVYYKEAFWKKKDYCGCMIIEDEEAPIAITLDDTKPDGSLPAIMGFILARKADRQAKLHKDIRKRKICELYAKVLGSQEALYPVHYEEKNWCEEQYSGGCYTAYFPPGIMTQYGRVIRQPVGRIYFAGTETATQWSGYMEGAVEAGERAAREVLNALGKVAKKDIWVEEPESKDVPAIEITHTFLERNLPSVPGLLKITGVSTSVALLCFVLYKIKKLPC
Glucocorticoid receptor (Homo sapiens), sequence (P04150 whole entry): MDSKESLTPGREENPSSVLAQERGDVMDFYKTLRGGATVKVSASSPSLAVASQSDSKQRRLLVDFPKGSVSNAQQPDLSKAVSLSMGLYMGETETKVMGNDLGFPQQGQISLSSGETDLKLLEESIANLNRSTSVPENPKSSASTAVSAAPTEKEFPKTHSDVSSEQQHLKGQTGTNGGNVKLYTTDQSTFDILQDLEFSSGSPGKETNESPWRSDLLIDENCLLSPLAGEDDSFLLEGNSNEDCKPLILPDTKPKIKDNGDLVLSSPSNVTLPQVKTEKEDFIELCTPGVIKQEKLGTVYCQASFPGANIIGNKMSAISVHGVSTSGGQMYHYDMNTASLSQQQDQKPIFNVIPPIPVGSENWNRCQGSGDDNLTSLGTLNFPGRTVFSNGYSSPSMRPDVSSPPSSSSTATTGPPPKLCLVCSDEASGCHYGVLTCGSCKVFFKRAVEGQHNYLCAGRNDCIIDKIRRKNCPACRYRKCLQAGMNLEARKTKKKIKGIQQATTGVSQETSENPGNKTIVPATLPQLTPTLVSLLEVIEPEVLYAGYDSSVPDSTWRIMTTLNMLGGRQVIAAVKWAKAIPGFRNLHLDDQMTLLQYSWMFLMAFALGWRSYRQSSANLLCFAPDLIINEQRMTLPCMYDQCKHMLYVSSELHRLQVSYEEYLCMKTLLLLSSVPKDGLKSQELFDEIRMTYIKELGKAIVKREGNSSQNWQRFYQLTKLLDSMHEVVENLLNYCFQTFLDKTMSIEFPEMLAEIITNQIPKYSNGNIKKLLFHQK
Mu-type opioid receptor (Homo sapiens), sequence (P35372 whole entry): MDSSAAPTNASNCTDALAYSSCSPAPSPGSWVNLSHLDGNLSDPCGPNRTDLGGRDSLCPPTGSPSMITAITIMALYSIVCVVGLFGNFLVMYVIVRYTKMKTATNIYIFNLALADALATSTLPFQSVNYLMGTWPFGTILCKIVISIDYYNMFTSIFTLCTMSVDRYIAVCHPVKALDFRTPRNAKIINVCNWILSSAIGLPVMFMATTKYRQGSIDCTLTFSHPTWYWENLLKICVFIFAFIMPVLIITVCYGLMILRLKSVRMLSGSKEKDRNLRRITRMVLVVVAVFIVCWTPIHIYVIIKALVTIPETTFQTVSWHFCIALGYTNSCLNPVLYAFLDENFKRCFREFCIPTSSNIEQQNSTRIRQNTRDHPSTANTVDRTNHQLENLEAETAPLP
Induced myeloid leukemia cell differentiation protein Mcl-1, sequence (Q07820 whole entry): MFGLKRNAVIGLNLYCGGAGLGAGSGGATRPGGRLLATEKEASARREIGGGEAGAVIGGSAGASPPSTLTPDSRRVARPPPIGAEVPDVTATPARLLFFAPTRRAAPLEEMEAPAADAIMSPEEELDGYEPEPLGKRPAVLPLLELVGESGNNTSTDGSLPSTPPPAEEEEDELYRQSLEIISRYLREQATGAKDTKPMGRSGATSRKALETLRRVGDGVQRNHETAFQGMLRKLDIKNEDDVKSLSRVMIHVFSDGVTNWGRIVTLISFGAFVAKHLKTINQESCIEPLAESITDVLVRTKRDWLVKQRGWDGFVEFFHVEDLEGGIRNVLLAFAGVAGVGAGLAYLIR

Row | SMILES | % Inhibition of Control Specific Binding (Mean n=2) [1] [%] | % Inhibition of Control Specific Binding (Mean n=2) [2] [%] | IC50 [3] | % Inhibition of Control Specific Binding (Mean n=2) [4] [%] | % Inhibition of Control Specific Binding (Mean n=2) [5] [%] | % Inhibition of Control Specific Binding (Mean n=2) [6] [%] | % Inhibition of Control Specific Binding (Mean n=2) [7] [%] | % Inhibition of Control Specific Binding (Mean n=2) [8] [%] | % Inhibition of Control Values (Mean n=2) [9] [%] | % Inhibition of Control Specific Binding (Mean n=2) [10] [%] | % Inhibition of Control Specific Binding (Mean n=2) [11] [%] | % Inhibition of Control Specific Binding (Mean n=2) [12] [%] | % Inhibition of Control Specific Binding (Mean n=2) [13] [%] | % Inhibition of Control Specific Binding (Mean n=2) [14] [%] | % Inhibition of Control Specific Binding (Mean n=2) [15] [%] | % Inhibition of Control Specific Binding (Mean n=2) [16] [%] | inhibition at 60 min, 10 µM [17] [%] | inhibition at 60 min, 10 µM [18] [%] | % Inhibition of Control Specific Binding (Mean n=2) [19] [%] | % Inhibition of Control Specific Binding (Mean n=2) [20] [%] | further results
1 | O=C(Nc1nc2ccccc2s1)c1cccc2c1CN(c1nc(C(=O)O)c(CCOc3ccc(-n4ncc5cncnc54)cc3)s1)CC2 [A-1107969] | 8.4 | -11 | 2 µM (not active) | -9.9 | -6.9 | -20.2 | -17.8 | 8.7 | 12.6 | 55.4 | -39.6 | -1.7 | -3.5 | 1.7 | -4 | 17.3 | 11.1 | -2 | -5.1 | 6 | % Inhibition of Control Values (Mean n=2) [21]: 68.2%; % Inhibition of Control Specific Binding (Mean n=2) [22]: -7.3%; % Inhibition of Control Specific Binding (Mean n=2) [23]: 11.2%; % Inhibition of Control Specific Binding (Mean n=2) [24]: 98.2%; % Inhibition of Control Specific Binding (Mean n=2) [25]: -8.2%
2 | CN(C)CC#Cc1ccc(OCCCc2sc(N3CCc4cccc(C(=O)Nc5nc6ccccc6s5)c4C3)nc2C(=O)O)c(F)c1 [A-1155463] | 11.9 | -11.6 | 14 µM (not active) | 4.1 | -7 | -7 | -2.5 | 3.3 | 2 | 37.8 | -7.1 | -6.3 | 20.5 | 4.7 | 20.9 | 18.1 | 74.5 | -2.2 | -2.2 | 36.1 | % Inhibition of Control Values (Mean n=2) [21]: 39.5%; % Inhibition of Control Specific Binding (Mean n=2) [22]: 28.6%; % Inhibition of Control Specific Binding (Mean n=2) [23]: 9.9%; % Inhibition of Control Specific Binding (Mean n=2) [24]: 99.1%; % Inhibition of Control Specific Binding (Mean n=2) [25]: -8.1%
